# From US9198429B2, “Heterocyclic alkanol-derivatives” (BAYER INTELLECTUAL PROPERTY GMBH, priority 2011, dated 2015)
# Values joined by “and” are separate entries in the source; they are usually repeats but may differ in a detail not shown here. Equal values may be shown once.
# Legend:
# [1] = tested on: Sphaerotheca fuliginea; assay: Example E: Sphaerotheca test (cucumber)/protective, comparison with EP-A 395 175; assay type: in vivo; settings: application rate 100 ppm, cucumber plants, protective, evaluation 7 days after inoculation
# [2] = tested on: Pyricularia oryzae; assay type: in vivo; settings: application rate 1000 ppm, rice plants, protective, evaluation 6 days after inoculation
# [3] = for log P [b]: pH 2.7; for log P [c]: pH 7.8; for log P [a]: pH 2.3
# [4] = tested on: Sphaerotheca fuliginea; assay: Example A: Sphaerotheca test (cucumber)/protective; assay type: in vivo; settings: 500 ppm, cucumber plants, protective, evaluation 7 days after inoculation
# [5] = tested on: Pyrenophora teres; assay: Example C: Pyrenophora teres test (barley)/protective; assay type: in vivo; settings: 500 ppm, protective, evaluation 7-9 days after inoculation
# [6] = tested on: Pyrenophora teres; assay: Example F: Pyrenophora teres test (barley)/protective, comparison with EP-A 409 418; assay type: in vivo; settings: application rate 500 ppm, protective, evaluation 7-9 days after inoculation
# [7] = tested on: Uromyces appendiculatus; assay: Example H: Uromyces test (beans)/protective; assay type: in vivo; settings: application rate 10 ppm, protective, evaluation 10 days after inoculation
# Protocol: To test for protective activity, young plants are sprayed with the preparation of active compound at the stated application rate. After the spray coating has dried on, the plants are inoculated with an aqueous spore suspension of bean rust (Uromyces appendiculatus) and then remain in an incubation cabin at 100% relative atmospheric humidity and 20° C. for one day. The plants are then placed in a greenhouse at 90% relative atmospheric humidity and a temperature of about 21° C. […]
# [8] = physchem
# [9] = tested on: Alternaria solani; assay: Example B: Alternaria test (tomato)/protective; assay type: in vivo; settings: 500 ppm, tomato plants, protective, evaluation 7 days after inoculation
# [10] = logP by HPLC on reversed-phase columns (EEC directive 79/831 Annex V.A8)
smiles,measurement,setting,value
CC(C)(C)C(O)(CCc1ccc(Cl)cc1)Cc1cncs1 (stereo not drawn),Efficacy in %,[1],8%
CC(C)(C)C(O)(COc1ccc(Cl)cc1)c1cncs1 (stereo not drawn),Efficacy in %,[2],33%
OC(c1ccc(Br)cc1)(c1cnco1)C1(Oc2ccc(F)cc2)CC1 (stereo not drawn) [Compound 7],log P [b],[3],3.54
same,log P [c],[3],3.52
CC(C)(C)C(O)(c1cncs1)C(C)(C)Oc1ccc(Br)cc1 (stereo not drawn) [Compound 15],Efficacy (%),[4],99%
same,log P [b],[3],4.27^[b]
CC(C)(Cc1ccc(Br)cc1)C(C)(O)c1cncs1 (stereo not drawn) [Compound 18],log P [b],[3],3.22^[b]
"CC(C)(Cc1ccc(Cl)cc1)C(C)(O)c1cncs1 (stereo not drawn) [Compound 22, 4-(4-chlorophenyl)-3,3-dimethyl-2-(1,3-thiazol-5-yl)butan-2-ol]",Efficacy (%),[4],75%
same,Efficacy (%),[5],70% and 90%
same,Efficacy in %,[6],70%
same,Efficacy in %,[2],78%
same,Efficacy in %,[7],80%
same,chromatographic logP,[8]; pH 2.7,3.11
CC(C)(Cc1ccc(I)cc1)C(C)(O)c1cncs1 (stereo not drawn) [Compound 20],Efficacy (%),[9],90%
same,log P [b],[3],3.45^[b]
"CC(C)(C)C(O)(CCc1ccc(Cl)cc1)c1cncs1 (stereo not drawn) [drawing 36, reference compound]",Efficacy in %,[6],0%
OC(c1ccc(Br)cc1)(c1cnco1)C1(Oc2ccc(F)cc2F)CC1 (stereo not drawn) [Compound 6],log P [b],[3],3.59
same,log P [c],[3],3.56
CC(C)(Cc1ccc(F)cc1Cl)C(C)(O)c1cncs1 (stereo not drawn) [Compound 19],log P [b],[3],3.14^[b]
CC(c1ccc(Cl)cc1Cl)C(O)(c1cncs1)C(C)(C)C (stereo not drawn) [Compound 23],Efficacy (%),[4],70%
same,log P [a],[3],4.4[a]
CC(C)(C)C(O)(c1cncs1)C(C)(C)Oc1ccc(I)cc1F (stereo not drawn) [Compound 14],log P [b],[3],4.7^[b]
"OC(Cc1cnc(Cl)s1)(c1ccc(Cl)cc1)C1(Oc2ccc(F)cc2)CC1 (stereo not drawn) [Compound 3, 1-(4-chlorophenyl)-2-(2-chloro-1,3-thiazol-5-yl)-1-[1-(4-fluorophenoxy)cyclopropyl]ethanol]",chromatographic logP,[8]; pH 2.7,4.55
same,chromatographic logP,[8]; pH 7.8,4.53
"OC(c1cnc(Cl)s1)(c1ccc(F)cc1F)C1(Oc2ccc(F)cc2F)CC1 (stereo not drawn) [Compound 12, (2-chloro-1,3-thiazol-5-yl)[1-(2,4-difluorophenoxy)cyclopropyl](2,4-difluorophenyl)methanol]",chromatographic logP,[8]; pH 2.7,4.29
same,chromatographic logP,[8]; pH 7.8,4.23
CC(c1ccc(F)cc1Cl)C(O)(c1cnc(Cl)s1)C(C)(CF)CF (stereo not drawn) [Compound 26],log P [a],[3],4.51^[a]
COc1ccc(OC(C)(C)C(O)(c2cncs2)C(C)(C)C)cc1 (stereo not drawn) [Compound 13],Efficacy (%),[5],75%
same,log P [b],[3],3.49^[b]
"OC(c1cncs1)(c1ccc(F)cc1F)C1(Oc2ccc(F)cc2F)CC1 (stereo not drawn) [Compound 11, [1-(2,4-difluorophenoxy)cyclopropyl](2,4-difluorophenyl)1,3-thiazol-5-ylmethanol]",Efficacy (%),[4],95%
same,chromatographic logP,[8]; pH 2.7,3.35
same,chromatographic logP,[8]; pH 7.8,3.3
"OC(c1ccc(Cl)cc1)(c1cnco1)C1(Oc2ccccc2)CC1 (stereo not drawn) [Compound 8, (4-chlorophenyl)(1,3-oxazol-5-yl)(1-phenoxycyclopropyl)methanol]",chromatographic logP,[8]; pH 2.7,3.37
same,chromatographic logP,[8]; pH 7.8,3.43
CC(C)(Cc1ccc(OC(F)(F)F)cc1)C(C)(O)c1cncs1 (stereo not drawn) [Compound 17],Efficacy (%),[9],90%
CC(C)(C)C(O)(CCc1ccc(Cl)cc1)c1cncs1 (stereo not drawn) [drawing 38],Efficacy in %,[2],22%
"OC(Cc1cncs1)(c1ccc(Cl)cc1)C1(Oc2ccc(F)cc2)CC1 (stereo not drawn) [Compound 2, 1-(4-chlorophenyl)-1-[1-(4-fluorophenoxy)cyclopropyl]-2-(1,3-thiazol-5-yl)ethanol]",Efficacy (%),[4],100%
same,Efficacy in %,[1],93%
same,chromatographic logP,[8]; pH 2.7,3.62
same,chromatographic logP,[8]; pH 7.8,3.65
"CC(C)(C)C(O)(c1cncs1)C(C)(C)Oc1ccc(Cl)cc1 (stereo not drawn) [Compound 16, 2-(4-chlorophenoxy)-2,4,4-trimethyl-3-(1,3-thiazol-5-yl)pentan-3-ol]",Efficacy (%),[4],100%
same,chromatographic logP,[8]; pH 2.7,4.13
OC(c1ccc(Br)cc1)(c1cnco1)C1(Oc2ccccc2)CC1 (stereo not drawn) [Compound 5],log P [b],[3],3.51
same,log P [c],[3],3.48
CC(C)(C)C(O)(COc1ccc(Cl)cc1)Cc1cncs1 (stereo not drawn),Efficacy in %,[1],5%
CC(c1ccc(F)cc1Cl)C(O)(c1cncs1)C(C)(CF)CF (stereo not drawn) [Compound 25],Efficacy (%),[4],93%
same,log P [b],[3],3.46^[b]
OC(c1cnco1)(c1ccc(F)cc1F)C1(Oc2ccc(F)cc2F)CC1 (stereo not drawn) [Compound 4],log P [b],[3],3.07
same,log P [c],[3],3.1
"CC(C)(C)C(O)(CCc1ccc(Cl)cc1)c1cncs1 (stereo not drawn) [drawing 41, reference compound]",Efficacy in %,[7],0%
"CC(C)[Si](c1ncc(C(O)(c2ccc(Cl)cc2)C2(Oc3ccccc3)CC2)o1)(C(C)C)C(C)C (stereo not drawn) [Compound 9, (4-chlorophenyl)(1-phenoxycyclopropyl)[2-(triisopropylsilyl)-1,3-oxazol-5-yl]methanol]",chromatographic logP,[10]; pH 2.7,7.36
same,chromatographic logP,[10]; pH 7.8,7.36
CC(C)(Cc1ccc(C(F)(F)F)cc1)C(C)(O)c1cncs1 (stereo not drawn) [Compound 21],Efficacy (%),[5],70%
same,log P [b],[3],3.34^[b]
